Columns and labels:
TDAG8 (GPR65) = settings: cited from earlier work
TDAG8 = target: T1, TDAG8 (Rattus norvegicus, UniProt A0A8I6AHC6); settings: in vivo; cited from earlier work
T1 construct: host or cells: rat, in vivo (endogenous receptor)

KLRG1+ ILC2s [1] = test: In vitro proliferation assay (CellTrace Violet, flow cytometry); assay type: cell-based, mouse; settings: IL-25 with α-CGRP plus adenylate cyclase inhibitor
Method: (§1) Flow cytometry and cell sorting. Cells were washed and suspended in MACS buffer (pH 7.4; PBS plus 2% FCS and 2 mM EDTA). Nonspecific antibody binding was blocked with CD16/CD32 (2.4G2) antibody for 15 min on ice. Cells were then stained with antibody cocktails for 30 min at 4° C. Lineage-positive cells were excluded for analyzing ILCs by staining for CD3ε (145-2C11), CD5 (53-7.3), CD19 (6D5), CD11b (M1/70), CD8 (53-6.7), CD11c (N418), Gr-1 (RB6-8C5), TCRγδ (eBioGL3 (GL-3, GL3)) and TCRβ (H57-597). To analyze mast cells, lineage-positive cells were excluded by staining for CD3ε, CD5, CD19, CD11c and SiglecF (E50-2440). For surface staining, antibodies for KLRG1 (2F1), CD45 (30-F11), CD127 (A7R34), CCR6 (29-2L17), NKp46 (29A1.4), CD90.2 (53-2.1), FcεRI (Mar-1), IgD (11-26c.2a) and ST2 (DJ8) were used. For intracellular staining, cells were fixed and permeabilized using the Foxp3 transcription factor staining buffer set, followed by staining with anti-GATA-3 (TWAJ) or anti-RORγt (B2D) antibodies. Dead cells were excluded with 7-AAD or Fixable Viability Dye eFluor 780. Flow cytometry was performed on Cytoflex (Beckman Coulter) and analyzed with FlowJo software. Sorting was performed with the SH800S Cell Sorter (Sony Biotechnology).
ILC2 culture. […]

intestinal KLRG1+ ILC2s = test: Bulk RNA-seq of intestinal KLRG1+ ILC2s stimulated in vitro; assay type: cell-based, mouse; settings: IL-25 alone in vitro
Source text: To determine if α-CGRP can directly trigger signaling in ILC2s and impact their transcriptional states under inflammatory conditions, Applicants performed bulk RNA-seq of KLRG1^+ ILC2s isolated from the small intestine and stimulated in vitro with IL-25 alone or together with α-CGRP. […] Thus, α-CGRP inhibits IL-25-induced proliferation and activation of intestinal KLRG1+ILC2s.
The presence at homeostasis of α-CGRP receptors on ILC2s and α-CGRP's expression on ChAT^+ intestinal neurons led Applicants to hypothesize that it has an effect on ILC2s during homeostasis. To test this hypothesis, Applicants next measured the expression profiles of intestinal KLRG1^+ ILC2s stimulated in vitro by α-CGRP alone, and identified genes differentially expressed under this signal (FIG. 6D, Methods).
ILC2 culture. Sort-purified intestinal KLRG1^+ ILC2s were incubated in RPMI supplemented with 10% FCS, 10 mM Hepes, 1 mM sodium pyruvate, 10% FBS, 80 μm 2-mercaptoethanol, 2 mM glutamine, 100 U/ml penicillin, […] streptomycin, 100 ng/ml IL-2 and 100 ng/ml IL-7 in 96-well round bottom plate at 37° C. and 5% CO2. If indicated, the culture was supplemented with 100 ng/ml IL-25. For the in vitro proliferation assay, cells from different mice were pooled and labeled with CellTrace Violet, and then cultured at 1,000-1,500 cells per well with 10 μg/ml α-CGRP for 60 hours. When indicated, 10 μM forskolin or 1 μM SQ 22, 536 in DMSO was supplied and cells were cultured for 40 hours. For bulk RNA-seq, cells from individual mice were stimulated at 200 cells per well with 0.4 μg/ml α-CGRP for 3 hours. For bulk ATAC-seq, cells were stimulated with 0.4 μg/ml α-CGRP for 2 hours.
Bulk RNA-seq. 200 ILC2s from each condition were lysed in 10 ul TCL buffer plus 0.5% 2-Mercaptoethanol. Libraries were processed with SMART-Seq2 (Picelli et al., 2013) with at least three replicates per condition, and paired-end sequenced (75 bp×2) with a […] Nextseq 500 high output V2 kit.
Reads were aligned to the mouse reference genome (NCBI 38, mm10) using Bowtie (Langmead et al., 2009) with default parameters, and expression abundances were estimated using RSEM software (Li and Dewey, 2011). The differential gene expression analysis was performed with edgeR (Robinson et al., 2010) with default parameters.

KLRG1+ ILC2s [2] = test: IL-25-induced in vivo ILC2 activation model; design: species or system mouse; settings: IL-25 administration alone
Source text: Intraperitoneal administration of α-CGRP impaired IL-25-induced expansion of KLRG1^+ ILC2s (FIGS. 5B and 12A), consistent with the in vitro results. Recent work has shown that intestinal KLRG1^+ ILC2s can migrate to mesenteric lymph nodes (mLNs) and other tissues during inflammation via sphingosine 1-phosphate (S1P)-mediated chemotaxis (Huang et al., 2018). To determine whether α-CGRP primarily impacts intestinal or mLN ILC2s, Applicants relied on the fact that intestinal GATA3^+ ILC2s are generally phenotypically KLRG1^+ST2^− (data not shown), whereas mLN ILC2s are mainly ST2^+ at steady state (FIG. 5C). IL-25 administration increased the frequency of both KLRG1^+ST2^− inflammatory ILC2s and ST2^+ ILC2s in mLNs (FIGS. 5C-E and 12B). […] Thus, α-CGRP preferentially regulates the response of intestinal KLRG1^+ST2^− ILC2s. […] Taken together, α-CGRP antagonized expansion of intestinal KLRG1^+ ILC2s in two different type 2 inflammatory models.
To activate ILC2s in vivo, 200 ng of IL-25 was intraperitoneally injected into 7-10 weeks old mice daily for two days. 1 μg α-CGRP was injected together as noted.
as §1
Immunofluorescence staining and imaging. The small intestines were fixed in 2% PFA, embedded in O.C.T. Compound and sliced into 10 μm by frozen section. The slides were blocked with 0.1% Triton X-100, 2% FCS and donkey serum. […] The images were analyzed with ImageJ.

T1 sequence (A0A8I6AHC6 1-337): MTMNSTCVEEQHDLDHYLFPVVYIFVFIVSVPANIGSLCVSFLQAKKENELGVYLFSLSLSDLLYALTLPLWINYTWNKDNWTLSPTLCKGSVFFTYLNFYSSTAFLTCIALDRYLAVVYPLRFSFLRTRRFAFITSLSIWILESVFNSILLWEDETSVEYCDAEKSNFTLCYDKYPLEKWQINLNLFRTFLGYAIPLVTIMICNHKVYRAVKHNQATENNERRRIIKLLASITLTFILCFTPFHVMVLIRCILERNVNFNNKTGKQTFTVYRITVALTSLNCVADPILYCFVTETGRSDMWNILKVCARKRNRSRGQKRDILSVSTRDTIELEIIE

Molecule: CN1N=C(SCc2ccc(Cl)cc2Cl)Sc2c1cnn(C)c2=O [BTB09089, 3-[(2,4-dichlorobenzyl)thio]-1,6-dimethyl-5,6-dihydro-1H-pyridazino[4,5-e][1,3,4]thiadiazin-5-one]
- TDAG8 activation in vitro (TDAG8 (GPR65)): activate
- efficacy in ischemic stroke murine disease model (TDAG8): in vivo efficacy

Molecule: Nc1ncnc2c1ncn2C1CCCO1 (stereo not drawn) [SQ22, 536, reference compound]
- α-CGRP inhibition of ILC2 proliferation (KLRG1+ ILC2s [1]): partially rescues

B1: IL-25: cytokine used to activate ILC2s in vitro and in vivo (protein, UniProt Q8VHH8 17-169, looked up)
Interleukin-25: VSLRIQEGCSHLPSCCPSKEQEPPEEWLKWSSASVSPPEPLSHTHHAESCRASKDGPLNSRAISPWSYELDRDLNRVPQDLYHARCLCPHCVSLQTGSHMDPLGNSVPLYHNQTVFYRRPCHGEEGTHRRYCLERRLYRVSLACVCVRPRVMA
- activation phenotype (expression of type 2 cytokines Il13, Il5 and mitotic genes such as Myc) (intestinal KLRG1+ ILC2s): induced the expected activation phenotype
- frequency of KLRG1+ST2− inflammatory ILC2s in mLNs (KLRG1+ ILC2s [2]): increased
- frequency of ST2+ ILC2s in mLNs (KLRG1+ ILC2s [2]): increased
